Measured values as given in patent US11739098B2 (BRISTOL-MYERS SQUIBB COMPANY, priority 2017, dated 2023).

Legend:
Type in all cases: cell-based
human TLR7 = target: T1, human TLR7 (Homo sapiens, UniProt Q9NYK1); assay: TLR7 inhibition reporter assay (HEK-Blue cells, SEAP reporter, gardiquimod stimulation); conditions: HEK-Blue cells overexpressing human TLR7, SEAP reporter, gardiquimod 7.5 μM
T1 construct: host or cells: HEK-Blue cells (HEK293-derived reporter line)
T1 sequence (Q9NYK1 27-1049): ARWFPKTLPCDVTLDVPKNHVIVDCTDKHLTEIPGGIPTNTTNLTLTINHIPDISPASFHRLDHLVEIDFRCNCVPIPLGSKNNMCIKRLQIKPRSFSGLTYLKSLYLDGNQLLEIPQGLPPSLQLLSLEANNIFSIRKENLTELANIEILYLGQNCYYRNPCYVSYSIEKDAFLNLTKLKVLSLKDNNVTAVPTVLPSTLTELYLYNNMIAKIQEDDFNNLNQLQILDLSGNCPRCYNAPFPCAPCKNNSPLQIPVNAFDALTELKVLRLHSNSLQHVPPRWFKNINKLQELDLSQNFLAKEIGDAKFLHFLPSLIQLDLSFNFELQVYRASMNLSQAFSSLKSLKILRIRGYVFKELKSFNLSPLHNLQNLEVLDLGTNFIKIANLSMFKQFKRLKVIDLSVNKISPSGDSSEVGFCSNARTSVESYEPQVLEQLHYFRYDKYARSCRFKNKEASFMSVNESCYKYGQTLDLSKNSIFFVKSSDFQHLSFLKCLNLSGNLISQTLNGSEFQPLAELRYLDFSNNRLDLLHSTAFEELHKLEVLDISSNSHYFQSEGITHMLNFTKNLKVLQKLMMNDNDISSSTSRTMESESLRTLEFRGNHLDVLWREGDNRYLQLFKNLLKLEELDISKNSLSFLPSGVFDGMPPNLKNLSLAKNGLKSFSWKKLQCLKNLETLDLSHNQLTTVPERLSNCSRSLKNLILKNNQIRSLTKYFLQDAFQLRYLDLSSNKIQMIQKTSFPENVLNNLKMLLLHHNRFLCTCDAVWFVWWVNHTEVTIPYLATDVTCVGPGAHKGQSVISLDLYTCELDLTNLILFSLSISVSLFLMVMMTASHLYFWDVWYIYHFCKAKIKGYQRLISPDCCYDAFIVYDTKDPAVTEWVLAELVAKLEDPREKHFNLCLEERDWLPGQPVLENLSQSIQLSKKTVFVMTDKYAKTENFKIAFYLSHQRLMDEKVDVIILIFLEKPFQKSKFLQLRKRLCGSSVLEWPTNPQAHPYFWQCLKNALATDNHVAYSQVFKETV
In short: (§1)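 HEK-Blue cells overexpressing the receptor, with NF-κB/AP-1-driven SEAP, were pre-treated 30 min at room temperature with compound (0.05 nM–50 μM), then stimulated with gardiquimod 7.5 μM (TLR7), R848 15.9 μM (TLR8) or ODN2006 5 nM (TLR9). SEAP was read after 22 h at 37 °C as percent inhibition.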

human TLR9 = target: T2, human TLR9 (Homo sapiens, UniProt Q9NR96); assay: TLR9 inhibition reporter assay (HEK-Blue cells, SEAP reporter, ODN2006 stimulation); conditions: HEK-Blue cells overexpressing human TLR9, SEAP reporter, ODN2006 5 nM
T2 construct: host or cells: HEK-Blue cells (HEK293-derived reporter line)
T2 sequence (Q9NR96 26-1032): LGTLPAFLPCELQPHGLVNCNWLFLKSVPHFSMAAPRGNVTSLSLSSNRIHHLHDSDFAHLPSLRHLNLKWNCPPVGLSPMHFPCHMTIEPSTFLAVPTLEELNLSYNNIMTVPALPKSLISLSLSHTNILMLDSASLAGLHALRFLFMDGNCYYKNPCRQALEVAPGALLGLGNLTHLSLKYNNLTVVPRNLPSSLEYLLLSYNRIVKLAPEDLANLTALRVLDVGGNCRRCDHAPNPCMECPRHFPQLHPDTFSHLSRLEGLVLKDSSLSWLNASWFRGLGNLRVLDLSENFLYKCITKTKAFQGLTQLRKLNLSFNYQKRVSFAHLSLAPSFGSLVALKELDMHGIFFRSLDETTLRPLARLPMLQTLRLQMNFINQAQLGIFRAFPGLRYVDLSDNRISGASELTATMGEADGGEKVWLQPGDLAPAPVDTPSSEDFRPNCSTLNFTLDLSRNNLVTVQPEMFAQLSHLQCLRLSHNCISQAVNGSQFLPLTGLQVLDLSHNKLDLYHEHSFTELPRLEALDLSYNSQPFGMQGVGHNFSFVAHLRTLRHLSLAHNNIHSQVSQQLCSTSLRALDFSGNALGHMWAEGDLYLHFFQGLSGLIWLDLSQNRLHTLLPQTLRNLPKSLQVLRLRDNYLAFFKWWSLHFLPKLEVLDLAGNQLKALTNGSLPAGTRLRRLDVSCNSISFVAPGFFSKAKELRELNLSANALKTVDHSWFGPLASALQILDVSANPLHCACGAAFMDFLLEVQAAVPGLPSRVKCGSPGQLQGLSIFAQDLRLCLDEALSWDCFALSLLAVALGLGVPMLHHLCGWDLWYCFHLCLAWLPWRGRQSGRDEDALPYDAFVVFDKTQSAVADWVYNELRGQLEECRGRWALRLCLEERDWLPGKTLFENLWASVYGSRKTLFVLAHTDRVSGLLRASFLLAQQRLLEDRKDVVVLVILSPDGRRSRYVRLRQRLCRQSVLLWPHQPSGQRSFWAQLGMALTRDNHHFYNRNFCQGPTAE
In short: as §1

human TLR8 = target: T3, human TLR8 (Homo sapiens, UniProt Q9NR97); assay: TLR8 inhibition reporter assay (HEK-Blue cells, SEAP reporter, R848 stimulation); conditions: HEK-Blue cells overexpressing human TLR8, SEAP reporter, R848 15.9 μM
T3 construct: host or cells: HEK-Blue cells (HEK293-derived reporter line)
T3 sequence (Q9NR97 27-1041): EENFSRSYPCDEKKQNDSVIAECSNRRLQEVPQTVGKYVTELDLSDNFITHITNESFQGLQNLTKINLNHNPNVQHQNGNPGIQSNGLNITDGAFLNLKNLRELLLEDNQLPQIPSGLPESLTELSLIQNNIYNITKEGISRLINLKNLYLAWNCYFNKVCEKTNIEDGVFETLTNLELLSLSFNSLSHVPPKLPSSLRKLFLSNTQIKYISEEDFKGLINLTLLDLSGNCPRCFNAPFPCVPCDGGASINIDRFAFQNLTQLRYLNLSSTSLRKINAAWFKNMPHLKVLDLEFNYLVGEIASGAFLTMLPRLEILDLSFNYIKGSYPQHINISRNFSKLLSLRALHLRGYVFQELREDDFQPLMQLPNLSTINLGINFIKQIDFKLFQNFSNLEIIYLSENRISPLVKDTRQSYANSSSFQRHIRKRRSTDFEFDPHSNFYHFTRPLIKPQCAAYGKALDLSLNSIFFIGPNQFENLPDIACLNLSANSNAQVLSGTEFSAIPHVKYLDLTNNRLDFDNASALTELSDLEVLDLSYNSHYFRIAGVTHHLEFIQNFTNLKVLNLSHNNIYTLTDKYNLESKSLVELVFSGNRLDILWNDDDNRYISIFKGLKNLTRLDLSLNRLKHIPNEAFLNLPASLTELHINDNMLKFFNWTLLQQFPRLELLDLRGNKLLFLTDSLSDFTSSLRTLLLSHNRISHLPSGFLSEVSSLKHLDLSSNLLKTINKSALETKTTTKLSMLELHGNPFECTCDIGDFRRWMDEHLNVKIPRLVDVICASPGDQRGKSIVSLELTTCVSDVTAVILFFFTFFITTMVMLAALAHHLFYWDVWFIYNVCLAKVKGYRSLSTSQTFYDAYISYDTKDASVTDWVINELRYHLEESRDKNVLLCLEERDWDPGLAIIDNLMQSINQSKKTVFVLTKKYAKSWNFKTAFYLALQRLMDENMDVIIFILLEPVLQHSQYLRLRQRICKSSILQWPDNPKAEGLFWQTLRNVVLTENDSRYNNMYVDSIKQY
In short: as §1

SMILES	IC50 (human TLR7) [nM]	IC50 (human TLR9) [nM]	IC50 (human TLR8) [nM]
Cc1cc(-c2[nH]c3ccc(C4CCN(C(=O)CN(C)C)CC4)cc3c2C(C)C)cc2[nH]c(=O)oc12 [Example 490, 5-(5-(1-(dimethylglycyl)piperidin-4-yl)-3-isopropyl-1H-indol-2-yl)-7-methylbenzo[d]oxazol-2(3H)-one]	100 to 1000	1000 to 50000	100 to 1000
CC(=O)N1CCC(C(=O)N2CCC(c3ccc4[nH]c(-c5ccnc6[nH]ncc56)c(C(C)C)c4c3)CC2)CC1 [Example 646, 1-(4-(4-(3-isopropyl-2-(1H-pyrazolo[3,4-b]pyridin-4-yl)-1H-indol-5-yl)piperidine-1-carbonyl)piperidin-1-yl)ethan-1-one]	100 to 1000	1000 to 50000	< 100
CC(C)c1c(-c2ccn3ccnc3c2)[nH]c2ccc(C3CCNCC3)cc12 [Example 203, 7-(3-isopropyl-5-(piperidin-4-yl)-1H-indol-2-yl)imidazo[1,2-a]pyridine]	< 100	100 to 1000	< 100
CC(C)c1c(-c2ccn3nncc3c2)[nH]c2ccc(C3CCN(C4CCOCC4)CC3)cc12 [Example 701, 5-(3-isopropyl-5-(1-(tetrahydro-2H-pyran-4-yl)piperidin-4-yl)-1H-indol-2-yl)-[1,2,3]triazolo[1,5-a]pyridine]	< 100	100 to 1000	< 100
CNC(=O)CN1CCC(c2ccc3[nH]c(-c4cc(C)c5nn(C)cc5c4)c(C(C)C)c3c2)CC1 [Example 378, 2-(4-(2-(2,7-dimethyl-2H-indazol-5-yl)-3-isopropyl-1H-indol-5-yl)piperidin-1-yl)-N-methylacetamide]	< 100	1000 to 50000	100 to 1000
CCc1c(-c2ccc3nccn3c2)[nH]c2cc(F)c(C3CCNCC3)c(F)c12 [Example 257, 6-(3-ethyl-4,6-difluoro-5-(piperidin-4-yl)-1H-indol-2-yl)imidazo[1,2-a]pyridine]	< 100	< 100	< 100
CC(C)c1c(-c2ccc3nccn3n2)[nH]c2ccc(C3CCNCC3)cc12 [Example 27, 6-(3-isopropyl-5-(piperidin-4-yl)-1H-indol-2-yl)imidazo[1,2-b]pyridazine]	< 100	1000 to 50000	< 100
CCc1c(-c2ccc3[nH]c(=O)[nH]c3c2)[nH]c2ccc(C3CCNCC3)cc12 [Example 166, 5-(3-ethyl-5-(piperidin-4-yl)-1H-indol-2-yl)-1,3-dihydro-2H-benzo[d]imidazol-2-one]	1000 to 50000	1000 to 50000	100 to 1000
CCc1c(-c2ccnc3nn[nH]c23)[nH]c2ccc(C3CCNCC3)cc12 [Example 56, 7-(3-ethyl-5-(piperidin-4-yl)-1H-indol-2-yl)-1H-[1,2,3]triazolo[4,5-b] pyridine]	1000 to 50000	1000 to 50000	1000 to 50000
CNC(=O)CN1CCC(c2ccc3[nH]c(-c4cc(CC(C)C)n5nc(C)cc5c4)c(C(C)C)c3c2)CC1 [Example 392, 2-(4-(2-(7-isobutyl-2-methylpyrazolo[1,5-a]pyridin-5-yl)-3-isopropyl-1H-indol-5-yl)piperidin-1-yl)-N-methylacetamide]	> 3130	1000 to 50000	> 3130
CC(C)c1c(-c2nc3c(s2)CNCC3)[nH]c2ccc(C3CCNCC3)cc12 [Example 208, 2-(3-isopropyl-5-(piperidin-4-yl)-1H-indol-2-yl)-4,5,6,7-tetrahydrothiazolo[5,4-c]pyridine]	1000 to 50000	< 100	1000 to 50000
CNC(=O)CN1CCC(c2ccc3[nH]c(-c4cn5nnnc5cc4C)c(C(C)C)c3c2)CC1 [Example 316, 2-(4-(3-isopropyl-2-(7-methyltetrazolo[1,5-a]pyridin-6-yl)-1H-indol-5-yl)piperidin-1-yl)-N-methylacetamide]	< 100	1000 to 50000	100 to 1000
Cc1c(-c2ccnc3cc[nH]c23)[nH]c2ccc(C3CCNCC3)cc12 [Example 23, 7-(3-methyl-5-(piperidin-4-yl)-1H-indol-2-yl)-1H-pyrrolo[3,2-b]pyridine]	< 100	100 to 1000	< 100
CNC(=O)CN1CCC(c2ccc3[nH]c(-c4ccn5cnnc5c4)c(C(C)C)c3c2)CC1 [Example 306, 2-(4-(2-([1,2,4]triazolo[4,3-a]pyridin-7-yl)-3-isopropyl-1H-indol-5-yl)piperidin-1-yl)-N-methylacetamide]	100 to 1000	1000 to 50000	100 to 1000
Cc1nc2cc(-c3[nH]c4ccc(C5CCN(CC(=O)N(C)C)CC5)cc4c3C(C)C)ccn2n1 [Example 326, 2-(4-(3-isopropyl-2-(2-methyl-[1,2,4]triazolo[1,5-a]pyridin-7-yl)-1H-indol-5-yl)piperidin-1-yl)-N,N-dimethylacetamide]	< 100	1000 to 50000	100 to 1000
